Data set [1] deals with Colo205 colon adenocarcinoma cells. Kind of data set: MTT cytotoxicity assay, Colo205. Particulars: read-out: IC50 Colo205, 10^4 cells, 72 h exposure. In general terms: Tetrazolium assays rely on reduction of a dye to a coloured formazan, in cell work by metabolically active cells.
Procedure: (§1) Cells were grown as monolayers in 75 cm^2 culture flasks (Starlab, Hamburg, Germany) at 37 °C in a humidified atmosphere containing 5% CO2.
(§2) The cytotoxic activity of the compounds was determined by the 3-(4,5-dimethylthiazol-2-yl)-2,5-diphenyl-2H-tetrazolium bromide (MTT) assay (obtained from Acros Organics, Geel, Belgium) in at least three independent experiments. […] Furthermore, 1 × 10^4 cells of Colo205, Colo320, and MCF-7 as well as MRC-5 were seeded overnight prior to the assay with 72 h exposure to the compounds tested. […] In the case of the metal complexes, we first mixed the ligand and the aqueous metal salt solution (c = 10 mM) in the appropriate ratio followed by dilution with the medium. The metal salts dissolved in the same way were also tested.
(§3) MTT assays with the cell lines Colo205, Colo320, MCF-7, and MRC-5 were performed after addition of the substances and a subsequent 72 h incubation time. At the end of the incubation period, 20 μL of the MTT solution (from a stock solution of 5 mg/mL) was added to each well. After the staining, the plates were incubated at 37 °C for 4 h, then 100 μL of SDS solution (10% in 0.01 M HCI) was added to each well, and the plates were incubated at 37 °C overnight. The optical density (OD) was determined at 540/630 nm with a Multiscan EX ELISA reader (Thermo Labsystems).
(§4) The IC50 values, i.e., the concentrations resulting in half the number of viable cells relative to untreated controls, were interpolated from concentration–effect curves of at least three independent experiments.
Data set [2] concerns MCF-7 breast cancer cells. Kind of data set: MTT cytotoxicity assay, MCF-7. Particulars: read-out: IC50 MCF-7, 10^4 cells, 72 h exposure.
Procedure: as §1, §2, §3, §4
Data set [3] deals with A549 non-small-cell lung cancer cells. Kind of data set: MTT cytotoxicity assay, A549. Particulars: read-out: IC50 A549, 3 × 10^3 cells, 96 h exposure.
Procedure: (§5) CH1/PA-1 (provided by L.R. Kelland, CRC Centre for Cancer Therapeutics, Institute of Cancer Research, Sutton, UK; confirmed by STR profiling as PA-1 ovarian teratocarcinoma cells at Multiplexion, Heidelberg, Germany), SW480 colon carcinoma, and A549 non-small-cell lung cancer cells (both obtained from the American Type Culture Collection, Manassas, VA, USA) were maintained in a minimal essential medium (MEM) supplemented with 1 mM sodium pyruvate, 4 mM L-glutamine, 1% (v/v) nonessential amino acids from 100-fold stock (all purchased from Sigma-Aldrich), and 10% heat-inactivated fetal bovine serum (FBS; BioWest, Nuaillé, France).
as §1
(§6) The cytotoxic activity of the compounds was determined by the 3-(4,5-dimethylthiazol-2-yl)-2,5-diphenyl-2H-tetrazolium bromide (MTT) assay (obtained from Acros Organics, Geel, Belgium) in at least three independent experiments. A total of 1 × 10^3 CH1/PA-1, 2 × 10^3 SW480, and 3 × 10^3 A549 cells were seeded at 100 μL per well into 96-well microculture plates (Starlab, Hamburg, Germany) 24 h before a treatment with the test compounds for a period of 96 h. […] In the case of the metal complexes, we first mixed the ligand and the aqueous metal salt solution (c = 10 mM) in the appropriate ratio followed by dilution with the medium.
(§7) CH1/PA-1, SW480, and A549 cells were treated with 100 μL/well of the test compounds serially diluted in complete MEM. […] After 4 h incubation, the MTT-containing medium was replaced with 150 μL DMSO per well to dissolve the formazan product formed by viable cells.
as §4
Data set [4] deals with SW480 colon carcinoma cells. Kind of data set: MTT cytotoxicity assay, SW480. The following applies: read-out: IC50 SW480, 2 × 10^3 cells, 96 h exposure.
Procedure: as §5, §1, §6, §7, §4
Data set [5] concerns Colo320 (doxorubicin-resistant) colon adenocarcinoma cells. As to the kind of experiment: MTT cytotoxicity assay, Colo320. The following applies: read-out: IC50 Colo320, 10^4 cells, 72 h exposure.
Procedure: as §1, §2, §3, §4
Data set [6] deals with MRC-5 normal embryonal lung fibroblasts. As to the kind of experiment: MTT cytotoxicity assay, MRC-5. Particulars: read-out: IC50 MRC-5, 10^4 cells, 72 h exposure, nontumoral fibroblasts.
Procedure: as §1, §2, §3, §4
The subject of data set [7] is CH1/PA-1 ovarian teratocarcinoma cells. As to the kind of experiment: MTT cytotoxicity assay, CH1/PA-1. Particulars: read-out: IC50 CH1/PA-1, 10^3 cells, 96 h exposure.
Procedure: as §5, §1, §6, §7, §4
On the set-up of data set [8]: method as in PMID 30236787. Particulars: vs NHE; cited from earlier work.

For the compound `[Cl-].[Cl-].[Zn+2]` [ZnCl2], the IC50 in data set [1] is above 10 µM; in data set [2] it was above 10 µM; in data set [3] it was 123 ± 9 µM; in data set [4] it was 125 ± 16 µM; in data set [5], above 10 µM; in data set [6] it was above 10 µM. For the same compound, in data set [7], the IC50 was 66 ± 3 µM.
In the case of `Cc1c(O)c(=O)ccn1C` [deferiprone], the “redox potential of the Fe(III)/Fe(II) complexes of the ligand” value (“redox potential” for short) in data set [8] was −620 mV.
Regarding `c1cnc2c(c1)ccc1cccnc12` [1,10-phenantroline], the “redox potential” value in data set [8] was “+1130 mV”.
Regarding `c1ccc(-c2ccccn2)nc1` [2,2-bipiyridine], the “redox potential” value in data set [8] is reported as “+1100 mV”.
Take `CC(=O)N(O)CCCCCNC(=O)CCC(=O)N(O)CCCCCNC(=O)CCC(=O)N(O)CCCCCN` [deferoxamine B]: in data set [8], the “redox potential” value is on record as −450 mV.
As for `[Cl][Cu][Cl]` [CuCl2], the IC50 is above 10 µM in data set [1]; above 10 µM in data set [2]; 142 ± 16 µM in data set [3]; 154 ± 21 µM in data set [4]; above 10 µM in data set [5]; above 10 µM in data set [6]. For the same compound, in data set [7], the IC50 amounted to 28 ± 5 µM.
Take `[Cl][Fe]([Cl])[Cl]` [FeCl3]: the IC50 in data set [1] is above 10 µM; in data set [2], above 10 µM; in data set [3], above 200 µM; in data set [4], above 200 µM; in data set [5], above 10 µM; in data set [6] it was above 10 µM. In addition, the IC50 in data set [7] is above 200 µM.
Regarding `O=C(O)c1ccc(-n2nc(-c3ccccc3O)nc2-c2ccccc2O)cc1` [deferasirox], in data set [8], the “redox potential” value is reported as −400 mV.
